Twelve molecules from the Kinase Knowledgebase extract (Sharma et al. 2016) can be followed below.

Assay [1] deals with MAPK14 (human) (UniProt Q16539). Put plainly: Assessment of MAPK14 Kinase Activity.
For assay [2] the target is unchanged. Put plainly: Inhibition of MAPK14 Kinase Activity.

Bounds are passed on as bounds.

Chain of MAPK14 (human) (Q16539 whole entry, looked up): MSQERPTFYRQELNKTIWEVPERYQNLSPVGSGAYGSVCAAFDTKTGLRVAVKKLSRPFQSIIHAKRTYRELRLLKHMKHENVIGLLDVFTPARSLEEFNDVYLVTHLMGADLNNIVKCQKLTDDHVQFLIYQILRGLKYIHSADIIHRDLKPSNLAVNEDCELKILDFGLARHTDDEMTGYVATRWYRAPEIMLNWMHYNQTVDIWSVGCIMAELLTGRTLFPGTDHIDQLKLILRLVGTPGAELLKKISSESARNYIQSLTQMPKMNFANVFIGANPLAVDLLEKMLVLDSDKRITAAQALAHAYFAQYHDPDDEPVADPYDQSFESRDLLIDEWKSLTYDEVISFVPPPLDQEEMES

In the case of `CCc1ccccc1CNC(=O)c1ccc(-c2cc(C(=O)NC3CC3)cc(F)c2C)[n+]([O-])c1`, the IC50 in assay [1] and in assay [2] was under 10 µM throughout.

For `CCC(CC)NC(=O)c1ccc(-c2cc(C(=O)NC3CC3)cc(F)c2C)[n+]([O-])c1`, the IC50 in assay [1] and in assay [2] was under 10 µM in each case.

Regarding `CCC(C)(C)NC(=O)c1ccc(-c2cc(C(=O)NC3CC3)cc(F)c2C)[n+]([O-])c1`, the IC50 in assay [1] and in assay [2] was under 10 µM throughout.

Regarding `Cc1c(F)cc(C(=O)NC2CC2)cc1-c1ccc(C(=O)N[C@H](C)C(C)C)c[n+]1[O-]`, the IC50 in assay [1] and in assay [2] was under 10 µM in each case.

Regarding `CCC1CCCN(C(=O)c2ccc(-c3cc(C(=O)NC4CC4)cc(F)c3C)[n+]([O-])c2)C1` (centres undefined), the IC50 in assay [1] and in assay [2] was under 10 µM throughout.

`Cc1c(F)cc(C(=O)NC2CC2)cc1-c1ccc(C(=O)NCc2ccc(C(F)(F)F)cc2C(F)(F)F)c[n+]1[O-]`: the IC50 in assay [1] and in assay [2] was under 10 µM in each case.

Regarding `Cc1ccc(C)c(CNC(=O)c2ccc(-c3cc(C(=O)NC4CC4)cc(F)c3C)[n+]([O-])c2)c1`, the IC50 in assay [1] and in assay [2] was under 10 µM in each case.

As for `Cc1c(F)cc(C(=O)NC2CC2)cc1-c1ccc(C(=O)NCC(C)(C)C)c[n+]1[O-]`, the IC50 in assay [1] and in assay [2] was under 10 µM in each case.

As to `COC[C@H](C)NC(=O)c1ccc(-c2cc(C(=O)NC3CC3)cc(F)c2C)[n+]([O-])c1`, the IC50 in assay [1] and in assay [2] was under 10 µM throughout.

Take `Cc1c(F)cc(C(=O)NC2CC2)cc1-c1ccc(C(=O)NC(C)c2ccc(Cl)cc2)c[n+]1[O-]` (centres undefined): the IC50 in assay [1] and in assay [2] was under 10 µM each time.

Consider `CCCNC(=O)c1ccc(-c2cc(C(=O)NC3CC3)cc(F)c2C)[n+]([O-])c1`, for which the IC50 in assay [1] and in assay [2] was under 10 µM throughout.

Regarding `Cc1ccc(CNC(=O)c2ccc(-c3cc(C(=O)NC4CC4)cc(F)c3C)[n+]([O-])c2)cc1C`, the IC50 in assay [1] and in assay [2] was under 10 µM in each case.
